According to publication PMC13347698 (Analytical Chemistry, 2026):
Where “and” joins values, the source holds several entries; their conditions need not be identical. Equal values may be shown once.

Experiments:
SARS-CoV-2 3CL^pro = conditions: cited from earlier work
[1] = target: T1, native SARS-CoV-2 3CL^pro (Severe acute respiratory syndrome coronavirus 2, UniProt P0DTD1); assay: biochemical; format: biochemical
wild-type 3CL^pro = wild-type 3CL^pro (Severe acute respiratory syndrome coronavirus 2, UniProt P0DTD1); assay: biochemical; format: binding, SARS-CoV-2; conditions: K D (wt)
SARS-CoV 3CL^pro = conditions: cited from earlier work
[2] = target: T1, native SARS-CoV-2 3CL^pro; format: biochemical

Structure (SMILES) | IC50 (SARS-CoV-2 3CL^pro) | Ki [1] [µM] | Kd (wild-type 3CL^pro) | IC50 (SARS-CoV 3CL^pro) [µM] | inhibition mode [1] | α parameter [1] | binding kinetics (fast or slow-binding) [2] | covalent or noncovalent inhibition [2] | reduction of reaction rate vi with respect to v0 [2] | reduction of thermal power minimum with respect to the noninhibited reaction [2] | tight or nontight binding [2]
O=C(Nc1ccc(N(Cc2ccsc2)C(=O)Cn2nnc3ccccc32)cc1)C1CC1 [ML300] | low micromolar range | 6.2 ± 0.4 | 7.5 µM and 3.6 µM | – | – | – | – | – | – | – | –
CC(C)(C)c1ccc(N(C(=O)c2c[nH]cn2)[C@@H](C(=O)NC2CCCCC2)c2cccnc2)cc1 [X77] | – | – | – | 3.4 | predominantly competitive | 16 ± 3 | fast | noncovalent | ca. 70% | ca. 40% | nontight
